Among the data in patent US20250346593A1, “IMIDAZO(1,2-1)PYRIDINE DERIVATIVES AS RIPK2 INHIBITORS” (Interline Therapeutics, Inc., priority 2022, published 2025) are IC50 values, retold here.

Experiment [1] has as its system NF-κB pathway (SEAP) in THP1-Dual cells. The experiment in a line: THP-1 Dual cell SEAP assay (L18-MDP stimulated). Type of experiment: cell-based. The following applies: Homo sapiens, THP1-Dual, read-out: NFkB THP1 IC50.
For experiment [2], the target named is GST-RIPK2 fusion protein (human RIPK2 amino acids 1-310) (Homo sapiens (Human), UniProt O43353). The experiment in a line: RIPK2 binding competition assay (TR-FRET, Tracer 199).
[3] abbreviates: read-out: RIPK2 IC50, RIPK2 binding competition assay.

Like-named read-outs stand apart in the source and are kept apart here.

Chain of GST-RIPK2 fusion protein (human RIPK2 amino acids 1-310) (O43353 1-310): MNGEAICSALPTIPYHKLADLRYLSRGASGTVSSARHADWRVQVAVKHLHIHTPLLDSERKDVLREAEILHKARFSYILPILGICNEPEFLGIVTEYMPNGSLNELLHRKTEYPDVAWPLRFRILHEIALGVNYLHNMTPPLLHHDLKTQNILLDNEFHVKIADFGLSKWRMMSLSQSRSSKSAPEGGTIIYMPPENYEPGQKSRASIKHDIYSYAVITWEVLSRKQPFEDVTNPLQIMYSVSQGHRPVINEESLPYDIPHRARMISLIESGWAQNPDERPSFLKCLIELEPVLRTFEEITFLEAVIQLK

In the case of `CC(C)(C)S(=O)(=O)c1ccn2ncc(-c3cc(F)nc(NCCCO)c3)c2c1` [Example 296, 3-((4-(5-(tert-butylsulfonyl)pyrazolo [1,5-a]pyridin-3-yl)-6-fluoropyridin-2-yl)amino)propan-1-ol], the concentration for half-maximal inhibition (IC50) was less than 50 nM in experiment [1] and 1 to 2.5 nM in experiment [2].

Take `CCOc1cn2ncc(-c3cc(F)c(N)nc3F)c2cc1S(=O)(=O)C(C)(C)C` [Example 115, 5-(5-(tert-butylsulfonyl)-6-ethoxypyrazolo[1,5-a]pyridin-3-yl)-3,6-difluoropyridin-2-amine]: the IC50 in experiment [1] was 250 to 1000 nM; in experiment [2], 2.5 to 20 nM.

As for `CCOc1cc2ncc(-c3cc(Cl)c(N)nc3F)n2cc1S(=O)(=O)C(C)C` [Example 118, 3-chloro-5-[6-ethoxy-5-(isopropylsulfonyl)-1,3a-diaza-3-indenyl]-6-fluoro-2-pyridylamine], the IC50 lay in the range of 250 to 1000 nM in experiment [1] and 2.5 to 20 nM in experiment [2].

As for `COc1cn2ncc(-c3cc(OC)c(N)nc3F)c2cc1S(=O)(=O)C(C)(C)C` [Example 104, 5-(5-(tert-butylsulfonyl)-6-methoxypyrazolo[1,5-a]pyridin-3-yl)-6-fluoro-3-methoxypyridin-2-amine], the values for the IC50 in experiment [1] and in experiment [2] were greater than 1000 nM and 2.5 to 20 nM, respectively.

Consider `COc1cc2ncc(-c3cnc(N)c(N)c3)n2cc1S(=O)(=O)C(C)(C)C` [Example 31, 5-(6-(tert-butylsulfonyl)-7-methoxyimidazo[1,2-a]pyridin-3-yl)pyridine-2,3-diamine], for which the values for the half-inhibitory concentration (IC50) in experiment [1] and in experiment [2] (setting [3]) were greater than 1000 nM and greater than 20 nM, respectively.

On to `COc1cc2ncc(-c3cc(F)nc(NC[C@@H](F)CO)c3)n2cc1S(=O)(=O)C(C)(C)C` [Example 229, (2R)-2-fluoro-3-({6-fluoro-4-[7-methoxy-6-(2-methylpropane-2-sulfonyl)imidazo[1,2-a]pyridin-3-yl]pyridin-2-yl}amino)propan-1-ol], for which the half-maximal inhibitory concentration (IC50) is less than 50 nM in experiment [1] and less than 1 nM in experiment [2] (setting [3]).

For `COc1cc2ncc(-c3cc(N)nc(F)c3)n2cc1S(=O)(=O)C(C)(C)C` [Example 215, 4-(6-(tert-butylsulfonyl)-7-methoxyimidazo[1,2-a]pyridin-3-yl)-6-fluoropyridin-2-amine], the IC50 in experiment [1] is less than 50 nM; in experiment [2] (setting [3]), less than 1 nM.

For `COc1cc2ncc(-c3cc(F)c(OC)c(OC)c3)n2cc1S(=O)(=O)C(C)(C)C` [Example 58, 6-(tert-butylsulfonyl)-3-(3-fluoro-4,5-dimethoxyphenyl)-7-methoxyimidazo[1,2-a]pyridine], the results for the IC50 in experiment [1] and in experiment [2] were greater than 1000 nM and 2.5 to 20 nM, respectively.

As to `COc1cc2ncc(-c3cc(N)c(F)c(F)c3)n2cc1S(=O)(=O)C(C)(C)C` [Example 44, 5-(6-(tert-butylsulfonyl)-7-methoxyimidazo[1,2-a]pyridin-3-yl)-2,3-difluoroaniline], the IC50 fell in the range of 50 to 250 nM in experiment [1] and 2.5 to 20 nM in experiment [2].

With `COc1cc2ncc(-c3cc(F)nc(NCC4CCNCC4)c3)n2cc1S(=O)(=O)C(C)(C)C` [Example 301, 4-(6-(tert-butylsulfonyl)-7-methoxyimidazo[1,2-a]pyridin-3-yl)-6-fluoro-N-(piperidin-4-ylmethyl)pyridin-2-amine], the concentration for half-maximal inhibition (IC50) in experiment [1] fell in the range of 50 to 250 nM; in experiment [2], 1 to 2.5 nM.

Turning to `CC(C)(C)S(=O)(=O)c1ccn2ncc(-c3cc(N)nc(F)c3)c2c1` [Example 298, 4-(5-(tert-Butylsulfonyl)pyrazolo[1,5-a]pyridin-3-yl)-6-fluoropyridin-2-amine], the IC50 in experiment [1] lay within 50 to 250 nM; in experiment [2], 2.5 to 20 nM.

`CCOc1cc2ncc(-c3ccc(N)nc3F)n2cc1S(=O)(=O)C(C)C` [Example 120, 5-[6-ethoxy-5-(isopropylsulfonyl)-1,3a-diaza-3-indenyl]-6-fluoro-2-pyridylamine]: the IC50 in experiment [1] was greater than 1000 nM; in experiment [2] (setting [3]) it was greater than 20 nM.

For the compound `COc1ccn2c(-c3cc(F)nc(F)c3)cnc2c1` [Example 45, 3-(2,6-difluoropyridin-4-yl)-7-methoxyimidazo[1,2-a]pyridine], the IC50 in experiment [1] was greater than 1000 nM; in experiment [2] (setting [3]), greater than 20 nM.

As for `COc1cn2ncc(-c3cc(NS(C)(=O)=O)c(OC)c(OC)c3)c2cc1S(=O)(=O)C(C)(C)C` [Example 141, N-(5-(5-(tert-butylsulfonyl)-6-methoxypyrazolo[1,5-a]pyridin-3-yl)-2,3-dimethoxyphenyl) methanesulfonamide], the results for the IC50 in experiment [1] and in experiment [2] were 50 to 250 nM and 1 to 2.5 nM, respectively.

In the case of `COc1cc2ncc(-c3cc(F)nc(NCC4CCN(C)C(=O)C4)c3)n2cc1S(=O)(=O)C(C)(C)C` (centres unmarked) [Example 200, 4-(((4-(6-(tert-butylsulfonyl)-7-methoxyimidazo[1,2-a]pyridin-3-yl)-6-fluoropyridin-2-yl)amino)methyl)-1-methylpiperidin-2-one], the results for the half-maximal inhibitory concentration (IC50) in experiment [1] and in experiment [2] were less than 50 nM and 1 to 2.5 nM, respectively.

`COc1cc2ncc(-c3ccc(N)c(F)c3)n2cc1S(=O)(=O)C(C)(C)C` [Example 20, 4-(6-(tert-butylsulfonyl)-7-methoxyimidazo[1,2-a]pyridin-3-yl)-2-fluoroaniline]: the IC50 fell in the range of 250 to 1000 nM in experiment [1] and 2.5 to 20 nM in experiment [2].

Turning to `COc1cc2ncc(-c3cc(C)c(OC)c(N)n3)n2cc1S(=O)(=O)C(C)(C)C` [Example 335, 6-(6-(tert-butylsulfonyl)-7-methoxyimidazo[1,2-a]pyridin-3-yl)-3-methoxy-4-methylpyridin-2-amine], the concentration for half-maximal inhibition (IC50) in experiment [1] was greater than 1000 nM; in experiment [2] it was greater than 20 nM.

As for `COc1cc2ncc(-c3cc(Cl)c(N)nc3F)n2cc1S(=O)(=O)C(C)(C)C` [Example 75, 5-(6-(tert-butylsulfonyl)-7-methoxyimidazo[1,2-a]pyridin-3-yl)-3-chloro-6-fluoropyridin-2-amine], the 50% inhibitory concentration (IC50) in experiment [1] lay in the range of 50 to 250 nM; in experiment [2], 2.5 to 20 nM.

As for `CCCS(=O)(=O)Nc1cc(-c2cnn3cc(OC)c(S(=O)(=O)C(C)(C)C)cc23)cc(OC)c1OC` [Example 140, N-(5-(5-(tert-butylsulfonyl)-6-methoxypyrazolo[1,5-a]pyridin-3-yl)-2,3-dimethoxyphenyl) propane-1-sulfonamide], the IC50 in experiment [1] was less than 50 nM; in experiment [2] (setting [3]), less than 1 nM.

As for `CCCS(=O)(=O)Nc1cncc(-c2cnc3cc(OC)c(S(=O)(=O)C(C)(C)C)cn23)c1` [Example 254], the IC50 in experiment [1] is greater than 1000 nM; in experiment [2] (setting [3]) it was greater than 20 nM.

For the compound `CCCS(=O)(=O)Nc1c(F)ccc(-c2cnc3cc(OC)c(S(=O)(=O)C(C)(C)C)cn23)c1F` [Example 255, N-(3-(6-(tert-butylsulfonyl)-7-methoxyimidazo[1,2-a]pyridin-3-yl)-2,6-difluorophenyl)propane-1-sulfonamide], the IC50 in experiment [1] is greater than 1000 nM; in experiment [2] it was greater than 20 nM.

As to `CCCS(=O)(=O)Nc1cc(-c2cnc3cc(OC)c(S(=O)(=O)C(C)(C)C)cn23)cc(F)c1F` [Example 266, N-(5-(6-(tert-butylsulfonyl)-7-methoxyimidazo[1,2-a]pyridin-3-yl)-2,3-difluorophenyl)propane-1-sulfonamide], the 50% inhibitory concentration (IC50) lay within 250 to 1000 nM in experiment [1] and 1 to 2.5 nM in experiment [2].

On to `COc1cc2ncc(-c3cc(F)nc(NCCC(C)O)c3)n2cc1S(=O)(=O)C(C)(C)C` (single isomer, unassigned) [Example 169, 4-((4-(6-(tert-butylsulfonyl)-7-methoxyimidazo[1,2-a]pyridin-3-yl)-6-fluoropyridin-2-yl)amino)butan-2-ol], for which the half-inhibitory concentration (IC50) in experiment [1] is less than 50 nM; in experiment [2], less than 1 nM.

Regarding `COc1cc2ncc(-c3cc(F)nc(NC[C@@H](C)O)c3)n2cc1S(=O)(=O)C(C)(C)C` [Example 226, (2R)-1-({6-fluoro-4-[7-methoxy-6-(2-methylpropane-2-sulfonyl)imidazo[1,2-a]pyridin-3-yl]pyridin-2-yl}amino)propan-2-ol], the figures for the IC50 in experiment [1] and in experiment [2] were less than 50 nM and 1 to 2.5 nM, respectively.

As for `COc1cc2ncc(-c3cnc(N)c(C)n3)n2cc1S(=O)(=O)C(C)(C)C` [Example 109, 5-(6-(tert-butylsulfonyl)-7-methoxyimidazo[1,2-a]pyridin-3-yl)-3-methylpyrazin-2-amine], the IC50 in experiment [1] was greater than 1000 nM; in experiment [2] (setting [3]), greater than 20 nM.

In the case of `COc1cc2ncc(-c3cc(F)nc(NC(C)(C)CO)c3)n2cc1S(=O)(=O)C(C)(C)C` [Example 237, 2-({6-fluoro-4-[7-methoxy-6-(2-methylpropane-2-sulfonyl)imidazo[1,2-a]pyridin-3-yl]pyridin-2-yl}amino)-2-methylpropan-1-ol], the half-inhibitory concentration (IC50) was in the range of 50 to 250 nM in experiment [1] and 2.5 to 20 nM in experiment [2].

Regarding `COc1cc2ncc(-c3cc(N)c(OC)c(F)c3)n2cc1S(=O)(=O)C(C)(C)C` [Example 2, 5-(6-(tert-butylsulfonyl)-7-methoxyimidazo[1,2-a]pyridin-3-yl)-3-fluoro-2-methoxyaniline], the IC50 is greater than 1000 nM in experiment [1] and 2.5 to 20 nM in experiment [2].

For the compound `COc1cc2ncc(-c3ccc(N)c(OC(F)(F)F)c3)n2cc1S(=O)(=O)C(C)(C)C` [Example 89, 4-(6-(tert-butylsulfonyl)-7-methoxyimidazo[1,2-a]pyridin-3-yl)-2-(trifluoromethoxy)aniline], the figures for the IC50 in experiment [1] and in experiment [2] were greater than 1000 nM and 2.5 to 20 nM, respectively.

Consider `COc1cc2ncc(-c3cnn(CCCO)c3)n2cc1S(=O)(=O)C(C)(C)C` [Example 323, 3-(4-(6-(tert-butylsulfonyl)-7-methoxyimidazo[1,2-a]pyridin-3-yl)-1H-pyrazol-1-yl)propan-1-ol], for which the IC50 in experiment [1] was greater than 1000 nM; in experiment [2] (setting [3]), greater than 20 nM.

Take `COc1cc2ncc(-c3cc(F)nc(NC[C@@H](O)CO)c3)n2cc1S(=O)(=O)C(C)(C)C` [Example 195, (R)-3-((4-(6-(tert-butylsulfonyl)-7-methoxyimidazo[1,2-a]pyridin-3-yl)-6-fluoropyridin-2-yl)amino)propane-1,2-diol]: the figures for the IC50 in experiment [1] and in experiment [2] (setting [3]) were less than 50 nM and less than 1 nM, respectively.

For the compound `COc1cc2ncc(-c3cnc(N)c(F)c3F)n2cc1S(=O)(=O)C(C)(C)C` [Example 164, 5-(6-(tert-butylsulfonyl)-7-methoxyimidazo[1,2-a]pyridin-3-yl)-3,4-difluoropyridin-2-amine], the IC50 in experiment [1] is greater than 1000 nM; in experiment [2] (setting [3]) it was greater than 20 nM.
